Data on three compounds can be found in patent US5070210A, “Novel ketenimines as intermediates for insecticides” (ICI Americas Inc., priority 1990, dated 1991).

What all share (assay type): in vivo
Assay [1] concerns Housefly [Musca domestica]. The assay can be described thus: Housefly insecticidal test. The following applies: μg per 25 female flies; mortality after 48 hours. Put shortly:
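LC50 (μg compound per 25 female flies) derives from dosage-mortality curves of 48 h kill. Flies, females 1-2 days old, were held 25 per cage over a dish coated with dried acetone deposit, starting at 100 μg per cage and descending.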

Assay [2] deals with Black Bean Aphid [Aphis fabae (Scop.)]. The assay can be described thus: Black bean aphid insecticidal test. The conditions noted are these: percent of test compound in sprayed solution; 48 hours. The protocol:
The compounds in Tables 1 and 2 above were tested for insecticidal activity using the following testing procedures. LC50 values, based on the results of these tests and calculated according to dosage-mortality curves, are expressed in Table 3.
Black Bean Aphid [Aphis fabae (Scop.)]:
Nasturtium plants (Tropaeolum sp.) approximately 5 cm tall, were transplanted into sandy loam soil in small cups and infested with 25-50 black bean aphids of mixed ages. Twenty-four hours later they were sprayed to the point of runoff with 50-50 acetone-water solutions of the test compounds. Treated plants were held in the greenhouse and mortality was recorded after 48 hours. Test concentrations ranged from 0.05% downward. The LC-50 value is expressed below in Table 3 under the heading "BBA" in terms of percent of the test compound in the sprayed solution.

Assay [3] deals with Tobacco Budworm [Heliothis virescens (Fabricius)] eggs. The assay can be described thus: Tobacco budworm egg test. The following applies: 2-day old eggs, percent in solution. The essentials:
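LC50 values (percent test compound in the dip solution) were calculated from dosage-mortality curves. Egg patches, 2 days old, were dipped in acetone solutions at concentrations from 0.1% downward and held at 78° F on rearing medium until control larvae hatched and fed.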

Assay [4] deals with Cabbage Looper [Trichoplusia ni (Hubner)]. The assay can be described thus: Cabbage looper insecticidal test. The following applies: second-instar larvae, percent in solution; 3-5 days. The essentials: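 Leaf dip, squash cotyledons, 50-50 acetone-water, top dose 0.1% and lower. 5 second-instar larvae/dish, moist filter paper, high-humidity chamber. Mortality at 3-5 d; LC50 (% in solution) from dosage-mortality curves.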

The subject of assay [5] is Tobacco Budworm [Heliothis virescens (Fabricius)] larvae. The assay can be described thus: Tobacco budworm contact test. The conditions noted are these: second-instar larvae, percent in solution, 5 days. The essentials: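 Cotton cotyledons dipped 2–3 s in compound in 50-50 acetone-water, dried, then infested with 5 second-instar larvae and held 5 days at high humidity. Mortality scored; LC50 from dosage-mortality curves, expressed as percent compound in solution, concentrations from 0.1% downward.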

For assay [6], the system named is Beet Armyworm (Spodoptera exigua). The assay can be described thus: Beet armyworm insecticidal test. The following applies: second-instar larvae, percent in solution; five days. The essentials:
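Five second-instar larvae per dish fed on dried sugar beet leaves previously dipped 2–3 s in acetone-water (1:1) test solutions up to 0.1%. Kept at high humidity, with deaths counted after five days; LC50 as % in solution via dosage-mortality curves.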

The test system of assay [7] is Aster Leafhopper [Macrosteles fascifrens (Stal)]. The assay can be described thus: Aster leafhopper insecticidal test. The conditions noted are these: adults/nymphs, percent in solution; 48 hours. The essentials: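 LC50 values, given as percent of test compound in the dip solution, were derived from dosage-mortality curves over concentrations from 0.05% downward. Mortality was counted 48 hours after ten leafhopper adults/nymphs were enclosed on treated seedlings. The seedlings were oats, about 10 cm tall, briefly dipped in 50-50 acetone-water.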

For assay [8], the system named is Maize weevil [Sitophilus Zeamais (Motschulsky)]. The assay can be described thus: Maize weevil insecticidal test. The following applies: adult weevils, percent in solution; 48 hours. Put shortly: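 LC50, in percent of compound in solution, was derived from dosage-mortality curves after 48 h at about 25 °C. Ten adult weevils per container fed on four corn seeds briefly immersed in acetone:water (50:50) solutions of up to 0.01% and dried.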

The subject of assay [9] is Rice water weevil [Lissorhoptrus oryzophilus (Kuschel)]. The assay can be described thus: Rice water weevil insecticidal test. The following applies: topical, μg per weevil; 48 hours. Put shortly:
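Female adult weevils (ten per dose) received 1 μl acetone droplets topically on the ventral abdomen, then were held with rice foliage and wet cotton at about 25 °C. Mortality scored at 48 h; LC50 in μg per weevil from dosage-mortality curves, top dose 2.5 μg per weevil.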

Consider `CC(C)C(=Nc1ccc(OC(F)(F)F)c(Cl)c1)OCc1cc(F)cc(Oc2ccc(F)cc2)c1` [Compound 328], for which, in [1], the “LC50, HF” value was more than 100 µg. Also, the “LC50, BBA” value in assay [2] is on record as more than 0.05%. Moreover, the “LC50, TBW, E (TBW-E)” value in assay [3] is recorded as more than 0.1%. In assay [4], the “LC50, CL” value is 0.03%.
On to `CC(C)C(=Nc1ccc(F)c(Br)c1)OCc1ccc(F)c(Oc2ccc(F)cc2)c1` [Compound 273], for which the “LC50, HF” value in assay [1] came out at 7 µg. Further, the “LC50, TBW, C (TBW-C)” value in assay [5] came out at 0.00025%. For the same compound, in [3], the “LC50, TBW, E (TBW-E)” value was 0.015%. Moreover, the “LC50, BAW” value in [6] came out at 0.0017%. For the same compound, the “LC50, CL” value in assay [4] worked out at 0.000018%. Further, in assay [7], the “LC50, LH” value was 0.0003%. Besides, the “LC50, MW” value in assay [8] was 0.004%. The “LC50, RWW” value in [9] was more than 2.5 µg.
On to `CC(C)C(=Nc1ccc(F)c(Cl)c1)OCc1cccc(Oc2ccc(Cl)cc2)c1` [Compound 239], for which, in assay [1], the “LC50, HF” value is 14 µg. Also, in assay [5], the “LC50, TBW, C (TBW-C)” value is listed as 0.0005%. The “LC50, TBW, E (TBW-E)” value in assay [3] worked out at 0.025%. The “LC50, BAW” value in [6] is given as 0.005%. Besides, in assay [4], the “LC50, CL” value was found to be 0.00015%. Also, in [7], the “LC50, LH” value is listed as 0.002%. The “LC50, MW” value in assay [8] is given as 0.006%. Further, the “LC50, RWW” value in assay [9] was more than 2.5 µg.
